These results are taken from patent US20260297164A1, “ANTI-FIBROTIC PEPTIDES AND USES THEREOF” (Deackt, Inc., priority 2021, published 2026).

For the assay, the system named is mouse lung fibroblasts. Put plainly: FasL-induced cell death of TGF-β1-stimulated mouse lung fibroblasts. Conditions: wild-type cells, TGF-β1 stimulation; FasL 200 ng/ml. Type of assay: cell-based. From the text: FIG. 2. CD148 deficiency in fibroblasts worsens pulmonary fibrosis in bleomycin-treated mice and increases fibroblast activation in response to TGF-β1. CD148 fibroblast-specific knockout mice (Ptprj^fl/fl Col1a2^Cre-ER(T)+/0 were developed as described in Methods. (A) Ptprj^fl/fl Col1a2^Cre-ER(T)+/0 mice or Col1a2^Cre-ER(T)+/0 (wild type) mice were exposed to BLM to induce lung fibrosis. At day 21, mouse lungs were harvested and stained with Masson's trichrome (n=3 for saline and n=5 for BLM groups). (B) Hydroxyproline content was measured in the left lung of Ptprj^fl/fl Col1a2^Cre-ER(T)+/0 mice (n=12) and Col1a2^Cre-ER(T)+/0 (WT) mice (n=12) exposed to BLM, and Ptprj^fl/fl Col1a2^Cre-ER(T)+/0 (n=6) and Col1a2^Cre-ER(T)+/0 (n=6) exposed to saline; at day 21. (C) Relative survival at day 0-21 after BLM. (D-E), α-SMA and CD148 expression in harvested lungs were measured by western blot (n=3-5 for each condition). (F-G) Gene expression of Fn and Col1a1, and Ctgf in harvested lungs was measured using qPCR (n=5 for each condition). […] (I) mRNA levels of Col1a1 and Fn were measured by qPCR (n=5 for each condition). […] Gel contractility was measured at 0, 12 and 24 h after TGF-β1 (10 ng/ml) stimulation (n=6 for each condition). […] At 24 h, cell viability was measured with MTT assay (n=5 for each condition). […]

In the case of TGF-β1, the “FasL-induced cell death and apoptosis” value is on record as “induced resistance”.
